Assays:
Fc fragment of IgG1 = assay: Binding affinity of Z33 and variants to IgG Fc
mouse IgG = assay: Azido transfer to mouse IgG in vivo (E1/E2 ELISA of serum); conditions: subcutaneous injection of 30 mg/kg, WT Swiss mice, serum at 24 h, listed as N3-2-I
Method: To evaluate the in vivo azido transfer in mice, two groups of mice were injected subcutaneously or intraperitoneally with the IgG-binder peptides. Mice were sacrificed at 24 hours post-injection, and the blood was collected for ELISA analysis. Sandwich ELISA assays. […] The percentage azido transfer was also compared with intraperitoneal injection of 10 mg/kg Z33-E20Hcy, intraperitoneal injection of 30 mg/kg of Z33-E20Hcy, subcutaneous injection of 30 mg/kg Z33-E20Hcy, and intraperitoneal injection of 30 mg/kg pegylated-Z33-E20Hcy (FIG. 2D).
Two sandwich ELISA assays have been developed in-house, one for the detection of the azido moiety conjugated mouse IgG (mIgG, E1), the other one for the detection of the whole mIgGs (modified and unmodified) in the sample (E2). Both E1 and E2 were run simultaneously on a same plate, using the same initial stock sample, and were processed in parallel at the same time for every steps. […] Absorbances were measured at 450 nm and 540 nm (A0=A450 nm-A540 nm) using a Spark microplate reader (Tecan, USA). The background noise (Ablank) from the serum was subtracted to get the final absorbance of the sample (Asample=A0-Ablank). The ratio Asample (E1)/Asample (E2) was calculated to estimate the percentage of azido transfer on the total amount of IgG in the sample. […]

Kd (Fc fragment of IgG1): ~60 nM
Sequence: FNMQQQRRFYEALHD PNLNHcyEQRNAKIKSI RDD [PEL-21]
Azido transfer to mouse IgG in vivo (conversion rate) (mouse IgG): 33±12%
